Assay results as given in patent publication US7691842B2, “Tricyclic 6-alkylidene-penems as β-lactamase inhibitors” (Wyeth LLC, priority 2002, dated 2010).
Where two headings read alike, the source gives them in different places.

Experiments:
[1] = molecular target: class A β-lactamase Imi-1 (Enterobacter cloacae, UniProt Q46991); assay: β-Lactamase inhibition, IC50 determination (nitrocefin, spectrophotometric); format: biochemical
class B enzyme CcrA = class B enzyme CcrA (Bacteroides fragilis, UniProt P25910); assay: as above; format: biochemical; details: enzyme 1.2 nM; 10 min preincubation at 25° C.; nitrocefin 50 μg/ml; 50 mM PO4, pH 7.0; read-out: IC50 (nM) Class B Ccr
Procedure, shortened: (§1)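 Purified enzymes TEM-1 (4.3 nM), Imi-1 (7.1 nM), CcrA (1.2 nM) and AmpC (2.1 nM) were preincubated with inhibitor 10 min at 25 °C in 50 mM PO4, pH 7.0. Nitrocefin (50 μg/ml) hydrolysis rates at 495 nm over 5 min gave % inhibition versus control; IC50 determined graphically.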

class C enzyme AmpC = class C enzyme AmpC (Enterobacter cloacae, UniProt P05364); assay: biochemical; set-up: species or system Enterobacter cloaca
Procedure, shortened: as §1

[2] = molecular target: class A β-lactamase TEM-1 (Escherichia coli, UniProt P62593); assay: β-Lactamase inhibition, IC50 determination (nitrocefin, spectrophotometric); format: biochemical, E. Coli
Procedure, shortened: as §1

[3] = tested on: class-A producing pathogens; details: background statement; cited from earlier work
[4] = tested on: class C producing organisms; details: background statement; cited from earlier work
[5] = tested on: Clinical isolates that have been adapted to cause infection in mice; assay: In vivo antibacterial protection (7 day survival of infected mice, ED50); set-up: species or system mice strain CD-1; details: Ratio of Piperacillin Inhibitor not given
Source text: In Vivo Antibacterial Protection
Female mice strain CD-1, approximately 18-22 grams, were received from Charles River Laboratories and quarantined 7 days prior to use. In addition, mice may be rendered neutropenic using cytoxan for particular studies.
Clinical isolates that have been adapted to cause infection in mice, are used in the experiment, including infections with strains of E. coli, K. pneumoniae, M. morganii, E. cloacae, S. marcescens, C. freundii, staphylococci, streptococci, P. aeruginosa and N. gonorrhoeae.
Mice are challenged by injecting 0.5 ml intraperitoneally or 0.05 ml intranasally of a predetermined bacterial inoculum suspended in broth, saline or hog gastric mucin (supplemented with dried bovine hemoglobin for N. gonorrhoeae). […] Antibacterial doses (dose concentration prepared by two fold serial dilutions of the antibiotic) are dissolved or suspended in 0.2% aqueous agar or methocel, phosphate buffered saline or an adjuvant are administered orally, subcutaneously or intravenously in the following manner: • a) Orally or subcutaneously: Dose volume of 0.5 ml administered ½ hr after infection. A second dose may be administered 3 hr. after infection for treatment of infections with more virulent organisms. • b) Intravenously: Dose volume of 0.2 ml, administered ½ hr. after infection. For the treatment of infections with more virulent organisms, more doses, up to 48 hr may be administered. (Intravenous dosing will not exceed 3 doses/24 hr period.) • c) Oral pretreatment: Under special circumstances, the pH of the stomach needs to be adjusted in order to increase the gastric stability of the antibiotic. For this purpose, 0.5 ml of phosphate buffered saline (pH7.8, 0.06M) (or specific approved adjuvant) is administered orally ½ hr after infection, followed 5 minutes later by 0.5 ml of antibiotic (also orally) contained in phosphate buffered saline (pH7.8, 0.06M). Animal Species
A detailed explanation as to the number of animals needed for the determination of in vivo efficacy follows: • A) Novel antibiotics are tested at 5 different dose levels with 5 mice per dose level at each of three routes of administration (oral, subcutaneous and intravenous). […] This would require 25 mice/route with 3 routes/antibiotic or 75 mice per novel compound tested. One to two novel antibiotics will be tested per experiment (75-150 mice) • B) The effectiveness of the new compound must be compared to that of a standard, or antibiotic of known effectiveness. Known or previously tested antibiotics are tested at 5 dose levels with 5 mice per dose level by a single route of administration, for a total of 25 mice/antibiotic. Usually 3-6 antibiotics will be tested per experiment. (75-150 mice). • C) Untreated controls—In each of the above tests, untreated animals are infected with 3 different concentrations of bacterial inoculum with 10 mice per concentration (30 mice total in each and every test). These untreated controls are used to determine and maintain the infection level between 10-100 LD50s as required for test to test comparison and validity. Determination of Protective Effects of Antibacterial Agents:
The protective effects of the antibacterial agent(s) are measured by the survival of the infected untreated as compared to the treated animals. For this determination, animals are observed for 7 days after treatment. A census of survivors is taken twice daily and at that time dead as well as moribund animals are removed. The 7 day survival ratio from three separate tests are pooled for estimation of median effective dose (ED50) by computerized program for probit analysis (Cleeland, R. and E. Squires. 1991. Evaluation of New Antimicrobials in Vitro and in Experimental Animal Infections. In Antibiotics in Laboratory Medicine”, 3rd. ed., edited by Victor Lorian. Willams and Wilkins Baltimore, Md. pp. 752-783). […]

E. Coli GC2844 = assay: Antimicrobial susceptibility testing, microbroth dilution MIC of piperacillin + inhibitor; format: cell-based; details: piperacillin combined with constant 4 μg/ml inhibitor; Inc: 35° C. for 18 hours
Procedure, shortened: (§2)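 MIC of piperacillin measured with inhibitor fixed at 4 μg/ml final, by NCCLS microbroth dilution in MHBII. Wells inoculated to 10^5 CFU/ml, read after 18-22 h at 35° C, ambient air.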

E. Coli GC2203 = assay: as above; format: cell-based; details: piperacillin combined with constant 4 μg/ml inhibitor; Inc: 35° C. for 18 hours
Procedure, shortened: as §2

S. aureus GC2216 = assay: as above; format: cell-based; details: piperacillin combined with constant 4 μg/ml inhibitor; Inc: 35° C. for 18 hours
Procedure, shortened: as §2

[6] = tested on: P. aeruginos GC1764 (Ampc); assay: as above; format: cell-based; details: piperacillin combined with constant 4 μg/ml inhibitor; Inc: 35° C. for 18 hours
Procedure, shortened: as §2

E. Coli GC2894 (Ampc) = assay: as above; format: cell-based; details: piperacillin combined with constant 4 μg/ml inhibitor; Inc: 35° C. for 18 hours
Procedure, shortened: as §2

E. Coli GC2920 (IRT-2) = assay: as above; format: cell-based; details: piperacillin combined with constant 4 μg/ml inhibitor; Inc: 35° C. for 18 hours
Procedure, shortened: as §2

E. Cloacae GC1477 (Ampc) = assay: as above; format: cell-based; details: piperacillin combined with constant 4 μg/ml inhibitor; Inc: 35° C. for 18 hours
Procedure, shortened: as §2

[7] = tested on: S. Marcescens GC1781 Sme-1 + Ampc; assay: as above; format: cell-based; details: piperacillin combined with constant 4 μg/ml inhibitor; Inc: 35° C. for 18 hours
Procedure, shortened: as §2

E. Coli GC2847 (TEM-1) = assay: as above; format: cell-based; details: piperacillin combined with constant 4 μg/ml inhibitor; Inc: 35° C. for 18 hours
Procedure, shortened: as §2

Chain of class C enzyme AmpC (P05364 21-381): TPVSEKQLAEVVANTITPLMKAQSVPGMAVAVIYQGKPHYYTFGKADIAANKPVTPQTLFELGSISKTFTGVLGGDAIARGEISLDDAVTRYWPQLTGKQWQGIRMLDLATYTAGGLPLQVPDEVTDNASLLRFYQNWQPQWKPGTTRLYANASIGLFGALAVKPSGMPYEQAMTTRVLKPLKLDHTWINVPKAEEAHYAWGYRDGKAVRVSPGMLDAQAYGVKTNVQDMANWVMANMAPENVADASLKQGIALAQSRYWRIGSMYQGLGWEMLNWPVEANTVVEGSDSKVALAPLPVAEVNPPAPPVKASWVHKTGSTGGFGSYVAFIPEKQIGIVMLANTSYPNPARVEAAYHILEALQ
Chain of class B enzyme CcrA (P25910 19-249): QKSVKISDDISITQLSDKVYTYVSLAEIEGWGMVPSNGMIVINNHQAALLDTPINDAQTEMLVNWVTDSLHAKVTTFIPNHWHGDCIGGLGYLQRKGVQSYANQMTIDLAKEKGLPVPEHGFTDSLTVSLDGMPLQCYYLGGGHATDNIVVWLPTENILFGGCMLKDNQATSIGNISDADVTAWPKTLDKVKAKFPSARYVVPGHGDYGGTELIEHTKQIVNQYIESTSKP
Chain of class A β-lactamase TEM-1 (P62593 24-286 limits assumed): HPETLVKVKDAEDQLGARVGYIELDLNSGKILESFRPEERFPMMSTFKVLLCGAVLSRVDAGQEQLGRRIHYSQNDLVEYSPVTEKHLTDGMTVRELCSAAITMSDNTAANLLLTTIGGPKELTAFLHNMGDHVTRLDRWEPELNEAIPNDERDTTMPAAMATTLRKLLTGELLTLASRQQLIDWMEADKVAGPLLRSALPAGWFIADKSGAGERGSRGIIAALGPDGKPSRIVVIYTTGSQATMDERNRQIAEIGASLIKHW
Chain of class A β-lactamase Imi-1 (Q46991 entry or part of it): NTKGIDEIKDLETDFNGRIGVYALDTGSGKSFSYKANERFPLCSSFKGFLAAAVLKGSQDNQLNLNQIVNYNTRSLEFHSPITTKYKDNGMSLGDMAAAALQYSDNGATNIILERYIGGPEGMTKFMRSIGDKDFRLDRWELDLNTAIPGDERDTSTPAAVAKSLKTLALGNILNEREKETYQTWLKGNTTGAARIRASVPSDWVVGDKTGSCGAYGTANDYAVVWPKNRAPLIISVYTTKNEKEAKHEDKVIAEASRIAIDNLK

Row | Compound | IC50 [1] [nM] | IC50 (class B enzyme CcrA) [nM] | IC50 (class C enzyme AmpC) [nM] | melting point | IC50 [2] [nM] | also measured
1 | O=C([O-])C1=CS[C@@H]2/C(=C\c3ccc4nc5n(c4c3)CCCS5)C(=O)N12.[Na+] [Example 29, (5R,6Z)-6-(3,4-dihydro-2H-[1,3]thiazino[3,2-a]benzimidazol-7-ylmethylene)-7-oxo-4-thia-1-azabicyclo[3.2.0]hept-2-ene-2-carboxylic acid, sodium salt] | 300 | 240 | 18 | > 250 °C | 15 | –
2 | Cc1nc2nc(/C=C3/C(=O)N4C(C(=O)[O-])=CS[C@H]34)nn2c2c1CCC2.[Na+] [Example 22, (5R,6Z)-6-[(5-methyl-7,8-dihydro-6H-cyclopenta[e][1,2,4]triazolo[1,5-a]pyrimidin-2-yl)methylene]-7-oxo-4-thia-1-azabicyclo[3.2.0]hept-2-ene-2-carboxylic acid, sodium salt] | – | – | – | 250 °C (dec.) | – | –
3 | O=C([O-])C1=CS[C@@H]2/C(=C\c3ccc4nc5n(c4c3)CCS5)C(=O)N12.[Na+] [Example 28, (5R,6Z)-6-(2,3-dihydro[1,3]thiazolo[3,2-a]benzimidazol-6-ylmethylene)-7-oxo-4-thia-1-azabicyclo[3.2.0]hept-2-ene-2-carboxylic acid, sodium salt] | 90 | 110 | 5.7 | > 250 °C | 3.2 | –
4 | Cc1nc2nc(/C=C3/C(=O)N4C(C(=O)[O-])=CS[C@H]34)nn2c2c1CCCC2.[Na+] [Example 25, (5R,6Z)-6-[(5-methyl-6,7,8,9-tetrahydro[1,2,4]triazolo[1,5-a]quinazolin-2-yl)methylene]-7-oxo-4-thia-1-azabicyclo[3.2.0]hept-2-ene-2-carboxylic acid, sodium salt] | – | – | – | 250 °C (dec.) | – | –
5 | C[C@]1(Cn2ccnn2)[C@H](C(=O)O)N2C(=O)C[C@H]2S1(=O)=O [tazobactam] | – | – | – | – | – | effectiveness against class-A producing pathogens [3]: effective; effectiveness against class C producing organisms [4]: ineffective
6 | CC1(C)[C@H](C(=O)O)N2C(=O)C[C@H]2S1(=O)=O [sulbactam] | – | – | – | – | – | effectiveness against class-A producing pathogens [3]: effective; effectiveness against class C producing organisms [4]: ineffective
7 | O=C([O-])C1=CS[C@@H]2/C(=C\c3cn4c5c(c(OCCOCc6ccccc6)nc4n3)CCC5)C(=O)N12.[Na+] [Example 27, (5R,6Z)-6-(5-[2-(benzyloxy)ethoxy]-7,8-dihydro-6H-cyclopenta[e]imidazo[1,2-a]pyrimidin-2-ylmethylene)-7-oxo-4-thia-1-azabicyclo[3.2.0]hept-2-ene-2-carboxylic acid, sodium salt] | 33 | 180 | 3 | > 250 °C | 12 | –
8 | O=C(O)[C@H]1/C(=C/CO)O[C@@H]2CC(=O)N21 [clavulanic acid] | – | – | – | – | – | effectiveness against class-A producing pathogens [3]: effective; effectiveness against class C producing organisms [4]: ineffective
9 | O=C([O-])C1=CS[C@@H]2/C(=C\c3nc4ncc5c(n4n3)CCC3(C5)OCCO3)C(=O)N12.[Na+] [Example 24, (5R,6Z)-6-(8′,9′-dihydro-6′H-spiro[1,3-dioxolane-2,7′-[1,2,4]triazolo[1,5-a]quinazolin]-2′-ylmethylene)-7-oxo-4-thia-1-azabicyclo[3.2.0]hept-2-ene-2-carboxylic acid, sodium salt] | – | – | – | > 250 °C (dec.) | – | –
10 | O=C(O)C1=CS[C@@H]2/C(=C\c3cn4c5c(sc4n3)COCC5)C(=O)N12 [Example 15, (5R),(6Z)-6-(5,8-dihydro-6H-imidazo[2,1-b]pyrano[4,3-d][1,3]thiazol-2-ylmethylene)-7-oxo-4-thia-1-azabicyclo[3.2.0]hept-2-ene-2-carboxylic acid] | – | 200 | – | – | – | IC50 ([1]; enzyme 7.1 nM, 10 min preincubation at 25° C., nitrocefin 50 μg/ml, 50 mM PO4, pH 7.0, read-out: IC50 (nM) Class A Imi): 100 nM; IC50 (class C enzyme AmpC; enzyme 2.1 nM, 10 min preincubation at 25° C., nitrocefin 50 μg/ml, 50 mM PO4, pH 7.0, read-out: IC50 (nM) Class C AmpC): 1.5 nM; ED50 [5]: 25 mg/kg; Minimal Inhibitory Concentration E. Coli GC2844 (E. Coli GC2844): 2 µg/mL; Minimal Inhibitory Concentration E. Coli GC2203 (E. Coli GC2203): 2 µg/mL; Minimal Inhibitory Concentration S. aureus GC2216 (S. aureus GC2216): 0.05 µg/mL; Minimal Inhibitory Concentration P. aeruginos GC1764 (Ampc) [6]: 4 µg/mL; Minimal Inhibitory Concentration E. Coli GC2894 (Ampc) (E. Coli GC2894 (Ampc)): 2 µg/mL; Minimal Inhibitory Concentration E. Coli GC2920 (IRT-2) (E. Coli GC2920 (IRT-2)): 2 µg/mL; Minimal Inhibitory Concentration E. Cloacae GC1477 (Ampc) (E. Cloacae GC1477 (Ampc)): 16 µg/mL; Minimal Inhibitory Concentration S. Marcescens GC1781 Sme-1 + Ampc [7]: 1 µg/mL; Minimal Inhibitory Concentration E. Coli GC2847 (TEM-1) (E. Coli GC2847 (TEM-1)): 4 µg/mL; IC50 ([2]; enzyme 4.3 nM, 10 min preincubation at 25° C., nitrocefin 50 μg/ml, 50 mM PO4, pH 7.0, read-out: IC50 (nM) Class A TEM-1): 2.8 nM
11 | O=C([O-])C1=CS[C@@H]2/C(=C\c3ccc4nc5sccn5c4c3)C(=O)N12.[Na+] [Example 30, (5R,6Z)-7-oxo-6-([1,3]thiazolo[3,2-a]benzimidazol-6-ylmethylene)-4-thia-1-azabicyclo[3.2.0]hept-2-ene-2-carboxylic acid, sodium salt] | 200 | 97 | 9.3 | > 250 °C | 46 | –
